Experiment [1] addresses T1, NAD-dependent protein deacetylase sirtuin-1 (Homo sapiens) (UniProt Q96EB6).
T1 sequence (whole entry): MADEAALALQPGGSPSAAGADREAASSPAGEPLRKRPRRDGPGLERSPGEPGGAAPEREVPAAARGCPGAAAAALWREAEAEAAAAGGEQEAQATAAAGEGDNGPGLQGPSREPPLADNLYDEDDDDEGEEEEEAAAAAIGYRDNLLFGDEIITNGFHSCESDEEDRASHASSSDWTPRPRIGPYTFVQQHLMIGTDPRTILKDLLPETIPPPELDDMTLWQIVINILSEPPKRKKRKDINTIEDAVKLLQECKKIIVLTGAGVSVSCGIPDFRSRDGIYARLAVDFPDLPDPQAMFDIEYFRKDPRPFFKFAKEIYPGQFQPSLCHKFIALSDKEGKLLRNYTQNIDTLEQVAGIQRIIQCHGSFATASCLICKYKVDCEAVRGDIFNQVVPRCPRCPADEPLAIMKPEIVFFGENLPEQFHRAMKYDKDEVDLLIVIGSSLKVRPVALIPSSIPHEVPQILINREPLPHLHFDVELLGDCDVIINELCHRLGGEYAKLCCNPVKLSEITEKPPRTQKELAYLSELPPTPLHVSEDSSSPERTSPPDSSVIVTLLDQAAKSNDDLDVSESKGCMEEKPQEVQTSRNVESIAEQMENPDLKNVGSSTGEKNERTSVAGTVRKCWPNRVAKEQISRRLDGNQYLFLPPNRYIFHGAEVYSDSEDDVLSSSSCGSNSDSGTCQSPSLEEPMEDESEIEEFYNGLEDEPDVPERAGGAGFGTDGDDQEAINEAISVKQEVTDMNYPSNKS
Briefly: Activation of SIRT1 (unknown origin) expressed in bacterial expression system assessed as increase in enzyme activity at 100 uM using Fluorophore labeled-Arg-His-Lys-Lys (Ac) as substrate incubated for 30 mins in presence of NAD+ by fluorimetric method relative to control.

Experiment [2] concerns the target T1, NAD-dependent protein deacetylase sirtuin-1 (Homo sapiens). Briefly: Activation of SIRT1 in Alzheimer's disease patient serum assessed as increase in deacetylation of SIRT1 substrate peptide at 5 mM preincubated for 1 hr followed by substrate addition measured after 1 hr by fluorescence spectroscopic method.
Experiment [3] shares this target. Briefly: Activation of SIRT1 (unknown origin) expressed in bacterial expression system assessed as increase in enzyme activity using Fluorophore labeled-Arg-His-Lys-Lys (Ac) as substrate incubated for 30 mins in presence of NAD+ by fluorimetric method.
For experiment [4] the target is unchanged. Briefly: Allosteric activation of SIRT1 in human IMR32 cells assessed as decrease in acetylation level of K382 residue of p53 after 48 hrs by Western blot method. It counts as cell-based. In general terms: A western blot detects proteins with antibodies after separation by electrophoresis.
Experiment [5] has the same target. Briefly: Activation of SIRT1 in Alzheimer's disease patient serum assessed as increase in deacetylation of SIRT1 substrate peptide at 1.5 to 3 mM preincubated for 1 hr followed by substrate addition measured after 1 hr by fluorescence spectroscopic method relative to control.
The target is the same in experiment [6]. Briefly: Activation of SIRT1 in human IMR32 cells assessed as protection against amyloid beta (25 to 35)-induced toxicity by measuring cell viability at 10 uM after 48 hrs by MTT assay (reference value: 56.3 +/- 1.2%). The class given is cell-based. Background: Tetrazolium assays rely on reduction of a dye to a coloured formazan, in cell work by metabolically active cells.

Experiment [7] has the same target. Briefly: Allosteric activation of SIRT1 in human IMR32 cells assessed as decrease in acetylation level of K382 residue of p53 at 160 uM after 48 hrs in presence of SIRT1 inhibitor nicotinamide by Western blot method. It counts as cell-based.
Experiment [8] shares this target. Briefly: Activation of SIRT1 (unknown origin) expressed in bacterial expression system assessed as increase in enzyme activity at 105 uM using Fluorophore labeled-Arg-His-Lys-Lys (Ac) as substrate incubated for 30 mins in presence of NAD+ by fluorimetric method relative to control.
Experiment [9] has the same target. Briefly: Activation of SIRT1 in human IMR32 cells assessed as protection against amyloid beta (25 to 35)-induced toxicity by measuring cell viability at 80 uM after 48 hrs by MTT assay (reference value: 56.3 +/- 1.2%). It counts as cell-based.
For experiment [10] the target is unchanged. Briefly: Activation of SIRT1 in human IMR32 cells assessed as protection against amyloid beta (25 to 35)-induced toxicity by measuring cell viability at 40 uM after 48 hrs by MTT assay (reference value: 56.3 +/- 1.2%). The class given is cell-based.
For experiment [11] the target is unchanged. Briefly: Activation of SIRT1 in human IMR32 cells assessed as protection against amyloid beta (25 to 35)-induced toxicity by measuring cell viability at 20 uM after 48 hrs by MTT assay (reference value: 56.3 +/- 1.2%). The class given is cell-based.
For experiment [12], the target named is T2, NAD-dependent protein deacetylase sirtuin-2 (Homo sapiens) (UniProt Q8IXJ6).
T2 sequence (whole entry): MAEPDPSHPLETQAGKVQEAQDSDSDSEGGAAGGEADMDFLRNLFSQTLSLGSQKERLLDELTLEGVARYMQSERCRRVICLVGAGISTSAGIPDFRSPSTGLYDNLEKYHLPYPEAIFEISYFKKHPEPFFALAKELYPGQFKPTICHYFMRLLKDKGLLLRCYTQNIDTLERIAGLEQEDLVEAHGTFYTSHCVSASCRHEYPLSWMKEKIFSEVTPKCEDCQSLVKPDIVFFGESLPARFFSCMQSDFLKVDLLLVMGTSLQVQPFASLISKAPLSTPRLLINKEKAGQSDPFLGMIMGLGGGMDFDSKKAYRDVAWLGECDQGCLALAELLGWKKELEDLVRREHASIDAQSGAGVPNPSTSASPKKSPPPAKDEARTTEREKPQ
Briefly: Activity at SIRT2 in Alzheimer's disease patient serum assessed as effect on deacetylation of SIRT2 substrate peptide at 1.5 to 3 mM preincubated for 1 hr followed by substrate addition measured after 1 hr by fluorescence spectroscopic method.

For experiment [13], the target named is T1, NAD-dependent protein deacetylase sirtuin-1 (Homo sapiens). Briefly: Activation of SIRT1 (unknown origin) expressed in bacterial expression system assessed as increase in enzyme activity at >145 uM using Fluorophore labeled-Arg-His-Lys-Lys (Ac) as substrate incubated for 30 mins in presence of NAD+ by fluorimetric method.

Activity calls are given as the source filed them. The rule behind the calls is not given here. Where a SMILES comes first, the peptide text is derived from it.

As for `N[C@@H](Cc1cnc[nH]1)C(=O)N[C@@H](CCC(=O)O)C(=O)N[C@@H](Cc1ccc(O)cc1)C(=O)O` (H-His-Glu-Tyr-OH), in [1], the Activity worked out at 15%.

`N=C(N)NCCC[C@H](NC(=O)[C@H](Cc1ccc(O)cc1)NC(=O)[C@@H](N)Cc1cnc[nH]1)C(=O)O` (H-His-Tyr-Arg-OH): in [1], the Activity amounted to 19%.

For the compound `N=C(N)NCCC[C@H](NC(=O)[C@@H]1CCCN1C(=O)[C@@H](N)Cc1cnc[nH]1)C(=O)O` (H-His-Pro-Arg-OH), the Activity in experiment [1] is -10%.

For the compound `N=C(N)NCCC[C@H](NC(=O)[C@H](Cc1ccc(O)cc1)NC(=O)[C@@H](N)CC(N)=O)C(=O)O` (H-Asn-Tyr-Arg-OH), the Activity in experiment [1] was 4%.

`N=C(N)NCCC[C@H](NC(=O)[C@H](Cc1c[nH]c2ccccc12)NC(=O)[C@@H](N)CC(N)=O)C(=O)O` (H-Asn-Trp-Arg-OH): the Activity in experiment [1] came to 24%.

Regarding `N=C(N)NCCC[C@H](NC(=O)[C@H](Cc1c[nH]c2ccccc12)NC(=O)[C@@H](N)Cc1ccccc1)C(=O)O` (H-Phe-Trp-Arg-OH), the Activity in experiment [1] came out at 28%.

In the case of `CC(C)[C@H](NC(=O)[C@@H](N)Cc1cnc[nH]1)C(=O)N[C@@H](CCCNC(=N)N)C(=O)O` (H-His-Val-Arg-OH), the Activity in experiment [1] amounted to 5%.

`N=C(N)NCCC[C@H](NC(=O)[C@H](Cc1ccc(O)cc1)NC(=O)[C@@H](N)CCC(N)=O)C(=O)O` (H-Gln-Tyr-Arg-OH): the Activity in [1] came to 12%.

As for `NC(=O)c1cccnc1`, the result in [2] was inactive.

In the case of `N=C(N)NCCC[C@H](NC(=O)[C@H](Cc1c[nH]c2ccccc12)NC(=O)[C@@H](N)CS)C(=O)O` (H-Cys-Trp-Arg-OH), in [3], the EC1.5 worked out at 55 µM. Also, the Activity entry in experiment [4] was “Dose-dependent effect”; in experiment [1], 97%; in experiment [5] it was 21.2%; in experiment [6], 57.1%; in experiment [9], 83.4%; in experiment [10], 79.8%. The Activity in experiment [11] was found to be 68%. Also, the outcome in [7] and in [12] was inactive. Besides, the fold change (FC) in experiment [8] was determined as 2. Besides, the outcome in [13] was Active.

As for `CC(C)C[C@H](NC(=O)[C@@H](N)CC(N)=O)C(=O)N[C@@H](CCCNC(=N)N)C(=O)O` (H-Asn-Leu-Arg-OH), the Activity in [1] turned out to be 6%.

These data come from ChEMBL document CHEMBL4007386, “Design, synthesis of allosteric peptide activator for human SIRT1 and its biological evaluation in cellular model of Alzheimer's disease” (Eur J Med Chem, 2017).
